# Key:
# in vivo [1] = assay: in vivo; parameters: species or system Beagle dogs; conditions: Beagle, dog; for AUC(0-inf): both sexes, po
# Procedure: DMB was administered orally by capsule to Beagle dogs for 26 weeks at dose levels of 0, 50, 150 and 300 mg/kg/day. Plasma levels were measured at 1 to 24 hours post-dose on Days 1 and 181. Peak plasma concentrations were measured at 1 to 4 hour postdose on Day 0, and at 1 to 8 hours postdose during Week 26. Systemic exposure increased with increasing dose level and was greater than dose-proportional on Day 0 and Week 26. […] The peak and extent of systemic exposure of Beagle dogs to DMB were similar in males and females. Systemic exposure values at Week 26 were 138 to 153% of the values at Day 0 for 50 mg/kg, 130% for 150 mg/kg, and 100 to 102% 300 mg/kg dose levels, indicating an accumulation of DMB during this time period for the 50 and 150 mg/kg dose levels and no accumulation at the 300 mg/kg dose level.
# Toxicokinetic information from the 26-week rat (Table 7) and 26-week dog toxicity studies (Table 8) are compared to systemic exposure (AUC) levels determined in a clinical study.
# in vivo [2] = type: in vivo
# From the text: Completed toxicology studies conducted with DMB include a single-dose toxicity study in Sprague-Dawley rats, escalating dose toxicity study in Beagle dogs, a repeat dose study of 14-Day duration in Sprague-Dawley rats and repeat-dose toxicity studies of 28-Day duration in Sprague-Dawley rats and Beagle dogs, and 26-Week studies in Sprague-Dawley rats and Beagle dogs. […] Reproductive toxicity studies include two dose-range finding studies, one in Sprague-Dawley rats, the other in New Zealand white rabbits. DMB was administered once a day (QD) orally via gavage; doses are expressed as the sodium salt. In addition, an array of genotoxicity studies were conducted with DMB.
# There were no abnormal macroscopic or microscopic observations associated with the elevated kidney or brain weights. These treatment-related findings were not considered adverse. The NOAEL for DMB administered to Sprague-Dawley rats for a minimum of 181 days was considered to be 500 mg/kg/day, whereas the NOEL for female Sprague-Dawley rats was 100 mg/kg/day.
# Solubility in water = type: physicochemical
# clinical = conditions: human, in vivo
# Procedure: The first clinical study was a phase 1, double-blind, placebo-controlled, single dose study of the tolerability, safety and pharmacokinetics of DMB in 32 healthy volunteers. Healthy, fasting adult volunteers received single oral doses of DMB or placebo capsules at one of four dose levels (2 mg/kg, 5 mg/kg, 10 mg/kg and 20 mg/kg). Six subjects received study drug (24 subjects total) and 2 subjects received placebo at each dose level. The 8 placebo subjects received a capsule containing only the excipients from the capsules containing the active agent. Subjects at the 20 mg/kg also received a second dose of study drug after a defined meal, one week following the fasting dose.
# DMB was rapidly absorbed after oral administration, with peak concentrations of DMB occurring at 0.5 to 3 hours after dosing, followed by a mono-exponential decay phase, consistent with linear pharmacokinetics (FIG. 7; FIG. 8). Inter-subject variability in the primary PK parameters appears to be low, especially at higher doses.
# [3] = Phase 1 repeat-dose clinical study, safety; type: in vivo, human
# Procedure: DMB was evaluated in a phase 1, placebo-controlled, randomized, repeat dose clinical study that evaluated tolerability, safety, and pharmacokinetics in healthy volunteers. A total of 41 subjects (31 receiving active drug and 10 receiving placebo) completed 14 consecutive days of study medication at daily dose levels of 5, 10 or 15 mg/kg (10 subjects received placebo). Given the importance of iron in red blood cell production, and the requirement for iron supplementation for induction of HbF with other erythropoietic agents, subjects at all 3 dose levels received oral ferrous gluconate on the study medication days. DMB was administered with food to all but one group (5 mg/kg, cohort 1). Subjects were admitted and observed for 24 hours following initial dosing. Thereafter, the study drug was taken once per day at home, except for the last study day. The subjects were monitored weekly for 6 weeks. Thirty-seven subjects completed the study and 4 subjects dropped out due to conflicts. Safety and PK data are available on these subjects.
# The treatment groups included: Cohort 1: 5 mg/kg fasting, 6 active, 2 placebo; Cohort 2: 5 mg/kg with food, 7 active, 2 placebo (3 drop outs); Cohort 3: 5 mg/kg with food and iron supplements, 6 active, 2 placebo (1 drop out); Cohort 4: 10 mg/kg with food and iron supplements, 6 active, 2 placebo; and Cohort 5: 15 mg/kg with food and iron supplements, 6 active, 2 placebo. Subjects in Cohorts 3, 4, and 5 received a single daily dose of ferrous gluconate (325 mg). The iron supplement was administered to evaluate study medication tolerability when taken with iron. No subjects discontinued due to AEs or safety concerns. Fewer subjects reported an event in the highest dose cohort following eating a meal ([…]) than were reported in the lower dose cohorts ([…], 5 and 10 mg/kg).
# The AEs observed in this study are described in Table 11. All events were assessed as mild by the Principal Investigator and resolved either on study or post study. No SAEs were reported. Two subjects had transient lymphadenopathy that were not considered related to study medication. No laboratory abnormalities of significance were noted except one patient developed a urinary tract infection. No clinically significant ECG abnormalities were noted.
smiles,measurement,setting,value
"CCC(C)(C)C(=O)[O-].[Na+] [DMB, Sodium 2,2-dimethylbutyrate]",AUC(0-inf),in vivo [1]; 50 mg/kg,127 µg·h/mL
same,AUC(0-inf),in vivo [1]; 150 mg/kg,473 µg·h/mL
same,AUC(0-inf),in vivo [1]; 300 mg/kg,1470 µg·h/mL
same,increase in exposure values for a 6-fold increase in dose (50 to 300 mg/kg/day),in vivo [1]; female,10.31 fold
same,increase in exposure values for a 6-fold increase in dose (50 to 300 mg/kg/day),"in vivo [1]; female, 26 weeks",7.58 fold
same,increase in exposure values for a 6-fold increase in dose (50 to 300 mg/kg/day),in vivo [1]; male,12.85 fold
same,increase in exposure values for a 6-fold increase in dose (50 to 300 mg/kg/day),"in vivo [1]; male, 26 weeks",8.35 fold
same,NOAEL at 181 days,"in vivo [2]; both sexes, rat, in vivo, minimum of 181 days, oral",500 mg/kg/day
same,mortalities or clinical observations,"in vivo [2]; daily oral, 26 weeks",no test article-associated mortalities or clinical observations
same,NOEL,"in vivo [2]; female, Sprague-Dawley, rat, in vivo, 181 days",100 mg/kg/day
same,adverse effects,"in vivo [2]; rat, in vivo",no adverse effects
same,mean absolute and relative liver weights,"in vivo [2]; rat, in vivo, 500 mg/kg/day",associated increases
same,solubility,Solubility in water,> 500 mg/mL
same,CL/F,clinical,0.267 to 1.03 mL/min/kg
same,Vd,clinical,0.204 to 0.426 L/kg
same,doses achieving biologically active plasma drug levels,clinical,≥ 10 mg/kg
same,half-life,clinical,5.5 to 11.6 h
same,AUC(0-inf),clinical; 2 mg/kg,38 ± 23 µg·h/mL
same,AUC,clinical; 5 mg/kg,38.3 µg·h/mL
same,AUC(0-inf),clinical; 5 mg/kg,320 ± 40 µg·h/mL
same,AUC(0-inf),clinical; 10 mg/kg,538 ± 125 µg·h/mL
same,AUC,clinical; 20 mg/kg,1190 µg·h/mL
same,AUC(0-inf),clinical; 20 mg/kg,1190 ± 243 µg·h/mL
same,effect of food on AUCINF,clinical; 20 mg/kg,no effects were observed
same,Cmax,"clinical; 20 mg/kg, mean Cmax",89 µg/mL
same,time of peak concentrations after dosing,clinical; po,0.5 to 3 h
same,SAEs reported,"[3]; 5, 10, 15 mg/kg for 14 days",No SAEs
same,dose limiting toxicity,"[3]; 5, 10, 15 mg/kg for 14 days",No dose limiting toxicity
same,tolerability,[3]; 5 to 15 mg/kg/day for 14 consecutive days,well-tolerated
same,Subject incidence of Abdominal pain,[3]; DMB N = 31,3%
same,Subject incidence of Contusion of elbow,[3]; DMB N = 31,3%
same,Subject incidence of Diarrhea,[3]; DMB N = 31,6%
same,Subject incidence of Fatigue,[3]; DMB N = 31,3%
same,Subject incidence of Flatulence,[3]; DMB N = 31,6%
same,Subject incidence of Gastritis,[3]; DMB N = 31,3%
same,Subject incidence of Gastroenteritis,[3]; DMB N = 31,3%
same,Subject incidence of Headache,[3]; DMB N = 31,23%
same,Subject incidence of Light-headedness,[3]; DMB N = 31,3%
same,"Subject incidence of Lymphadenopathy, inguinal",[3]; DMB N = 31,3%
same,Subject incidence of Menstrual cramps,[3]; DMB N = 31,6%
same,Subject incidence of Nausea,[3]; DMB N = 31,6%
same,Subject incidence of Pharyngeal erythema,[3]; DMB N = 31,3%
same,Subject incidence of Pharyngitis,[3]; DMB N = 31,6%
same,Subject incidence of Pregnancy,[3]; DMB N = 31,3%
same,Subject incidence of Reflux esophagitis,[3]; DMB N = 31,3%
same,"Subject incidence of Spasm, esophageal",[3]; DMB N = 31,3%
same,Subject incidence of Sunburn,[3]; DMB N = 31,3%
same,Subject incidence of Upper respiratory infection,[3]; DMB N = 31,3%
same,Subject incidence of Urinary tract infection,[3]; DMB N = 31,3%
same,Subject incidence of Vaginal candidiasis,[3]; DMB N = 31,3%

# Source: patent publication US8618068B2, “Methods and low dose regimens for treating red blood cell disorders” (priority 2009, dated 2013)
